Results published in patent US20140255392A1 (BAYER INTELLECTUAL PROPERTY GMBH, priority 2011, published 2014).

The compounds below were run against T1, human kinase Mps-1 (Homo sapiens, UniProt P33981) (assay: Mps-1 kinase assay (TR-FRET)). Conditions: N-terminally GST-tagged human full length recombinant Mps-1; 10 μM ATP; 1 μM peptide substrate; 60 min at 22° C.
T1 construct: N-terminally GST-tagged human full length recombinant Mps-1 kinase; GST (N); purchased Invitrogen, Karslruhe, Germany PV4071
T1 sequence (P33981 1-857): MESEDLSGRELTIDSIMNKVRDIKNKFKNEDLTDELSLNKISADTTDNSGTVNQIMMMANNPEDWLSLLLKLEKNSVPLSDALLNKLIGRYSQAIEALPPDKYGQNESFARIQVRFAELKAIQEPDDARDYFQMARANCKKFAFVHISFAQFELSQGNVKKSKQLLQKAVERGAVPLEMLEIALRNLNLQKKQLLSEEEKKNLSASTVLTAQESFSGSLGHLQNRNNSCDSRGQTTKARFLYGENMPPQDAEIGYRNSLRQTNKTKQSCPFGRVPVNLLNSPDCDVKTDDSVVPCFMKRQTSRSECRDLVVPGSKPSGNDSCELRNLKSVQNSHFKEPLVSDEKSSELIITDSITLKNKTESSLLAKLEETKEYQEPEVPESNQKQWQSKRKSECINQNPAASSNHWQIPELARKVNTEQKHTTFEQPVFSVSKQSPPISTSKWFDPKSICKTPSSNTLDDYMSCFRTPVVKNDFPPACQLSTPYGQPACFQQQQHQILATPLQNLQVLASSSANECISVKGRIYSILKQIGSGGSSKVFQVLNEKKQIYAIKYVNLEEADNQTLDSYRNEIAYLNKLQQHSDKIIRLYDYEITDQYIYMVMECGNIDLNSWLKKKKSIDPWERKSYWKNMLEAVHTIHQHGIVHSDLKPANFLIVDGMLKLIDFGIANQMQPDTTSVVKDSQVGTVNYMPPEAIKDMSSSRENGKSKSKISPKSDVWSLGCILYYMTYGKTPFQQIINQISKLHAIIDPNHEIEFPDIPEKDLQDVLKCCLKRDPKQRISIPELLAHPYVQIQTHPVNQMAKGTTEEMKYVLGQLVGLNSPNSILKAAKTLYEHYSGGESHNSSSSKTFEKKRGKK
Assay type: biochemical
Procedure, shortened: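 TR-FRET signal between a Europium anti-phospho-Ser/Thr antibody and streptavidin-XLent reported phosphorylation of a biotinylated peptide by GST-tagged full-length Mps-1. Enzyme was near 1 nM final, chosen per lot for linearity.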

SMILES	IC50
C=Cc1cc(NCCC(F)(F)F)c2ncc(-c3ccc(C(=O)NCC)c(C)c3)n2c1 [Example 94, N-ethyl-2-methyl-4-{8-[(3,3,3-trifluoropropyl)amino]-6-vinylimidazo[1,2-a]pyridin-3-yl}benzamide]	84.3 nM
CNC(=O)c1ccc(-c2cnc3c(NCCC(F)(F)F)cc(/C=C\CO)cn23)cc1C [Example 119, 4-{6-[(1Z)-3-hydroxyprop-1-en-1-yl]-8-[(3,3,3-trifluoropropyl)amino]imidazo[1,2-a]pyridin-3-yl}-N,2-dimethylbenzamide]	54.7 nM
C/C=C/c1cc(NCCC(F)(F)F)c2ncc(-c3ccc(C(=O)NC)c(C)c3)n2c1 [Example 112, N,2-dimethyl-4-{6-[(1E)-prop-1-en-1-yl]-8-[(3,3,3-trifluoropropyl)amino]imidazo[1,2-a]pyridin-3-yl}benzamide]	21.8 nM
C=Cc1cc(NCCC(F)(F)F)c2ncc(-c3ccc(C(=O)NC4(C)CC4)c(C)c3)n2c1 [Example 95, 2-Methyl-N-(1-methylcyclopropyl)-4-{8-[(3,3,3-trifluoropropyl)amino]-6-vinylimidazo[1,2-a]pyridin-3-yl}benzamide]	140 nM
CNC(=O)c1ccc(-c2cnc3c(NCCC(F)(F)F)cc(C(C)O)cn23)cc1C (racemic) [Example 144, 4-{6-[(1RS)-1-Hydroxyethyl]-8-[(3,3,3-trifluoropropyl)amino]imidazo[1,2-a]pyridin-3-yl}-N,2-dimethylbenzamide]	233 nM
C/C=C/c1cc(NCCC(F)(F)F)c2ncc(-c3ccc(C(=O)N[C@H]4C[C@@H]4C)c(C)c3)n2c1 (relative stereo) [Example 117, 2-Methyl-N-[rel-(1S,2S)-2-methylcyclopropyl]-4-{6-[(1E)-prop-1-en-1-yl]-8-[(3,3,3-trifluoropropyl)amino]imidazo[1,2-a]pyridin-3-yl}benzamide]	9.4 nM
CCc1cc(NCCC(F)(F)F)c2ncc(-c3ccc(C(=O)N[C@H]4C[C@@H]4C)c(C)c3)n2c1 (relative stereo) [Example 105, 4-{6-Ethyl-8-[(3,3,3-trifluoropropyl)amino]imidazo[1,2-a]pyridin-3-yl}-2-methyl-N-[rel-(1S,2S)-2-methylcyclopropyl]benzamide]	49.8 nM
C/C=C/c1cc(NCCC(F)(F)F)c2ncc(-c3ccc(C(=O)NCC)c(C)c3)n2c1 [Example 113, N-ethyl-2-methyl-4-{6-[(1E)-prop-1-en-1-yl]-8-[(3,3,3-trifluoropropyl)amino]imidazo[1,2-a]pyridin-3-yl}benzamide]	45.1 nM
Cc1cc(-c2cnc3c(NCCC(F)(F)F)cc(Oc4cccc(OC(F)(F)F)c4)cn23)ccc1C(=O)NC1(C#N)CC1 [Example 75, N-(1-cyanocyclopropyl)-2-methyl-4-{6-[3-(trifluoromethoxy)phenoxy]-8-[(3,3,3-trifluoropropyl)amino]imidazo[1,2-a]pyridin-3-yl}benzamide]	157 nM
Cc1cc(-c2cnc3c(NCCC(F)(F)F)cc(-c4ccncc4)cn23)ccc1C(=O)NC1(C)CC1 [Example 90]	15.9 nM
Cc1cc(-c2cnc3c(NCCC(F)(F)F)cc(-c4ccccc4O)cn23)ccc1C(=O)N[C@H]1C[C@@H]1F (relative stereo) [Example 135, N-[rel-(1S,2S)-2-fluorocyclopropyl]-4-{6-(2-hydroxyphenyl)-8-[(3,3,3-trifluoropropyl)amino]imidazo[1,2-a]pyridin-3-yl}-2-methylbenzamide]	8.4 nM
CCNC(=O)c1ccc(-c2cnc3c(NCCC(F)(F)F)cc(C(C)O)cn23)cc1C (racemic) [Example 145, N-ethyl-4-{6-[(1RS)-1-hydroxyethyl]-8-[(3,3,3-trifluoropropyl)amino]imidazo[1,2-a]pyridin-3-yl}-2-methylbenzamide]	250 nM
Cc1cc(-c2cnc3c(NCCC(F)(F)F)cc(Oc4ccc(OC(F)(F)F)c(F)c4)cn23)ccc1C(=O)NC1CC1 [Example 83, N-cyclopropyl-4-{6-[3-fluoro-4-(trifluoromethoxy)phenoxy]-8-[(3,3,3-trifluoropropyl)amino]imidazo[1,2-a]pyridin-3-yl}-2-methylbenzamide]	68.7 nM
C#Cc1cc(NCCC(F)(F)F)c2ncc(-c3ccc(C(=O)NC)c(C)c3)n2c1 [Example 14, 4-{6-ethynyl-8-[(3,3,3-trifluoropropyl)amino]imidazo[1,2-a]pyridin-3-yl}-N,2-dimethylbenzamide]	65.2 nM

Compounds with a lower IC50, results first:

IC50	SMILES
2.3 nM	CNC(=O)c1ccc(-c2cnc3c(NCCC(F)(F)F)cc(-c4ccc(C(N)=O)c(C)c4)cn23)cc1C [Example 160, 4-{6-(4-carbamoyl-3-methylphenyl)-8-[(3,3,3-trifluoropropyl)amino]imidazo[1,2-a]pyridin-3-yl}-N,2-dimethylbenzamide]
0.7 nM	Cc1cc(-c2cnc3c(NCCC(F)(F)F)cc(Oc4cccc(F)c4)cn23)ccc1C(=O)NC1CC1F (single isomer, unassigned) [Example 12 (ent.-A or A), N-{[(1R,2R) or (1S,2S)]-2-fluorocyclopropyl}-4-{6-(3-fluorophenoxy)-8-[(3,3,3-trifluoropropyl)amino]imidazo[1,2-a]pyridin-3-yl}-2-methylbenzamide]
0.8 nM	Cc1cc(-c2cnc3c(NCCC(F)(F)F)cc(-c4ccc(C(=O)NC5(C#N)CC5)c(C)c4)cn23)ccc1C(=O)NC1CC1 [Example 150, 4-(6-{4-[(1-cyanocyclopropyl)carbamoyl]-3-methylphenyl}-8-[(3,3,3-trifluoropropyl)amino]imidazo[1,2-a]pyridin-3-yl)-N-cyclopropyl-2-methylbenzamide]
0.5 nM	CNC(=O)c1ccc(-c2cc(NCCC(F)(F)F)c3ncc(-c4ccc(C(=O)NC5CC5)c(C)c4)n3c2)cc1C [Example 147, 4-{3-[4-(cyclopropylcarbamoyl)-3-methylphenyl]-8-[(3,3,3-trifluoropropyl)amino]imidazo[1,2-a]pyridin-6-yl}-N,2-dimethylbenzamide]
1 nM	CCNC(=O)c1ccc(-c2cc(NCCC(F)(F)F)c3ncc(-c4ccc(C(=O)NC5CC5)c(C)c4)n3c2)cc1C [Example 148, 4-{3-[4-(cyclopropylcarbamoyl)-3-methylphenyl]-8-[(3,3,3-trifluoropropyl)amino]imidazo[1,2-a]pyridin-6-yl}-N-ethyl-2-methylbenzamide]
2.9 nM	CNC(=O)c1ccc(-c2cnc3c(NCCC(F)(F)F)cc(Oc4cccc(OC)c4)cn23)cc1C [Example 55, 4-{6-(3-Methoxyphenoxy)-8-[(3,3,3-trifluoropropyl)amino]imidazo[1,2-a]pyridin-3-yl}-N,2-dimethylbenzamide]
0.5 nM	Cc1cc(-c2cnc3c(NCCC(F)(F)F)cc(Oc4ccc(O)c(F)c4)cn23)ccc1C(=O)NC1CC1 [Example 129, N-cyclopropyl-4-{6-(3-fluoro-4-hydroxyphenoxy)-8-[(3,3,3-trifluoropropyl)amino]imidazo[1,2-a]pyridin-3-yl}-2-methylbenzamide]
1.9 nM	CCNC(=O)c1ccc(-c2cnc3c(NCC4CCOCC4)cc(Oc4ccc(OC)c(F)c4)cn23)cc1C [Example 122, N-ethyl-4-{6-(3-fluoro-4-methoxyphenoxy)-8-[(tetrahydro-2H-pyran-4-ylmethyl)amino]imidazo[1,2-a]pyridin-3-yl}-2-methylbenzamide]
2.2 nM	Cc1cc(-c2cnc3c(NCCC(F)(F)F)cc(Oc4cccc(O)c4)cn23)ccc1C(=O)NC1(C)CC1 [Example 137, 4-{6-(3-Hydroxyphenoxy)-8-[(3,3,3-trifluoropropyl)amino]imidazo[1,2-a]pyridin-3-yl}-2-methyl-N-(1-methylcyclopropyl)benzamide]
6.2 nM	CNC(=O)c1ccc(-c2cnc3c(NCCC(F)(F)F)cc(-c4ccc(C(=O)NC5CC5)c(C)c4)cn23)cc1C [Example 158, 4-{6-[4-(cyclopropylcarbamoyl)-3-methylphenyl]-8-[(3,3,3-trifluoropropyl)amino]imidazo[1,2-a]pyridin-3-yl}-N,2-dimethylbenzamide]
4.9 nM	Cc1ccc(F)cc1Oc1cc(NCCC(F)(F)F)c2ncc(-c3ccc(C(=O)N[C@@H]4C[C@H]4C)c(C)c3)n2c1 (relative stereo) [Example 61, Rel-4-{6-(5-fluoro-2-methylphenoxy)-8-[(3,3,3-trifluoropropyl)amino]imidazo[1,2-a]pyridin-3-yl}-2-methyl-N-[(1R,2R)-2-methylcyclopropyl]benzamide]
5.8 nM	C/C=C/c1cc(NCCC(F)(F)F)c2ncc(-c3ccc(C(=O)NC4CC4)c(C)c3)n2c1 [Example 111, N-cyclopropyl-2-methyl-4-{6-[(1E)-prop-1-en-1-yl]-8-[(3,3,3-trifluoropropyl)amino]imidazo[1,2-a]pyridin-3-yl}benzamide]
